The values below come from US20230228744A1, “DRY EYE DISEASE BIOMARKERS AND THEIR USE FOR TREATMENT” (Aldeyra Therapeutics, Inc., priority 2020, published 2023).

Experiment [1] has as its system subjects with dry eye disease. Description: Phase 2/3 (TRANQUILITY) run-in cohort, dry eye signs and symptoms (environmental dosing and dry eye chamber). It counts as in vivo, human. The protocol: Changes over 24 hours after the first dose on Day 1 and changes over 90 minutes in the CAE will be assessed via mixed effect model for repeated measures (MMRM) of change from baseline (pre-dose Day 1), with baseline score as a covariate, and time and test article group as factors. For assessments that include both eyes, eye will be added as a factor.
Schirmer's Test will be assessed via MMRM of change from baseline (screening), with baseline score as a covariate, and pre/post dose, eye, and test article group as factors.
This study is a Phase 2/3, multi-center, randomized, double-masked, parallel design, vehicle-controlled trial designed to evaluate the efficacy and safety of 0.25% Reproxalap Ophthalmic Solution compared to vehicle in subjects with dry eye disease. Approximately twenty subjects will be enrolled in the Initial Cohort, and approximately 300 subjects will be enrolled in the Main Cohort. Male and female subjects at least 18 years of age with a subject-reported history of dry eye disease in both eyes and meeting all other eligibility criteria will be randomized to receive reproxalap or vehicle in a 1:1 ratio (approximately 150 subjects in each treatment group).
This study uses a challenge-model of dry eye disease known as a “dry eye chamber.” Challenge-model trials utilizing a controlled chamber are an FDA accepted design for pivotal endpoints. See, for example, FDA published “Dry Eye: Developing Drugs for Treatment” draft guidance; December 2020.
Dry eye chambers control relative humidity, temperature, airflow, and visual tasking in order to stress the ocular surface. Chambers simulate a “bad day” scenario in the life of a dry eye disease sufferer. Trial designs utilizing chambers are able to confirm the utility of drugs with rapid onset of action during an acute ocular surface challenge.
Secondary Endpoints: • Visual analog scale eye dryness score assessed over 24 hours after first dose on Day 1, and over 90 minutes in CAE® (Key Secondary Symptom Endpoint) • Ora Calibra® Ocular Discomfort Scale assessed over 24 hours after first dose on Day 1, and over 90 minutes in CAE® • Ocular Discomfort & 4-Symptom Questionnaire assessed over 24 hours after first dose on Day 1, and before and after CAE® • Ora Calibra® Conjunctival Allergen Challenge Ocular Itching Scale assessed over 24 hours after first dose on Day 1, and before and after CAE® • Schirmer's Test change from baseline before and after the final dose on Day 1 • Change in tear RASP levels before and after Dose 1 and 2 on Day 1 and Dose 3 on Day 2. Conjunctival redness over 24 hours after first dose on Day 1.
Visit 1 (Day −14 −16/+2, Screening) • Informed Consent and HIPAA • Demographics (e.g. gender, date of birth, race, ethnicity) • Medical/Medication & Ocular History • Urine Pregnancy Test (as needed) • Symptom Questionnaires: • a. Ocular Discomfort & 4-Symptom Questionnaire • b. Ora Calibra® Ocular Discomfort Scale • c. Ocular Dryness Visual Analog Scale • d. Ora Calibra® Conjunctival Allergen Challenge Ocular Itching Scale • Visual Acuity (ETDRS) • Slit Lamp Biomicroscopy with Conjunctival Redness assessment • Fluorescein Staining using the Ora Calibra® Corneal and Conjunctival Staining Scale • Inclusion/Exclusion Criteria Review • In-Office Vehicle Instillation by trained site staff (within 10 minutes prior to CAE® entry) • CAE® Exposure (90 minutes, vehicle administration at 45 minutes) with: • a. Ocular Dryness Visual Analog Scale every 5 minutes • b. Ora Calibra® Ocular Discomfort Scale every 5 minutes • c. Conjunctival Redness Photography at 0, 5, 10, 15, 20, 30, 45 (before 45-minute dose), 50, 55, 60, 65, 75, 90 minutes (+/−2 minutes) via digital photography • Slit Lamp Biomicroscopy with Conjunctival Redness assessment • Schirmer Test • Intraocular Pressure • Dilated Exam • Schedule for Visit 2 […]

A further experiment has as its system dry eye disease patients. Description: Phase 3 clinical trial (RENEW-Part 1), VAS ocular dryness score over 12-week chronic treatment. In kind it is in vivo, human. The following applies: 0.25% reproxalap, 12-week treatment, as early as one week after treatment initiation. The source says: Treatment Difference of induction-maintenance dosing, defined as the difference between the changes from baseline for the evaluated drug vs. vehicle (LS Mean Difference ±95% CI). Ocular Dryness Score co-primary endpoint assessed in pre-specified patient population having an OD4S dryness baseline score of ≥3 (N=170). […] […] Source: Reproxalap RENEW-Part 1 clinical trial results and TRANQUILITY Run-In Cohort initial results. VAS=Visual Analog Scale; OD4S=Ocular Discomfort & 4-Symptom; CAC=Conjunctival Allergen Challenge; MMRM=Mixed Effect Model Repeated Measures.

The mark [2] stands for this setting: Day 1, 24 hours of QID dosing, N = 12, vehicle +0.1, P 0.006.

SMILES strings stand for the structures.

In the case of `CC(C)(O)c1nc2ccc(Cl)cc2cc1N` [reproxalap, Reproxalap], in experiment [1] (setting [2]), the “Change From Baseline, OD4S: Dryness (0-5)” value is on record as −1.2 and the “Change From Baseline, OD4S: Grittiness (0-5)” value is −1.1. For the same compound, the “Change From Baseline, OD4S: Discomfort (0-5)” value in experiment [1] (Day 1, 24 hours of QID dosing, N = 12, vehicle +0.4, P 0.003) is recorded as −0.7. Moreover, the “Change From Baseline, Ocular Discomfort Scale (0-4)” value in experiment [1] (Day 1, 24 hours of QID dosing, N = 12, vehicle +0.4, P 0.07) is listed as −0.7. Besides, the “Change From Baseline, OD4S: Sting (0-5)” value in experiment [1] (Day 1, 24 hours of QID dosing, N = 12, vehicle +0.4, P 0.23) is −0.1. Besides, the “Change From Baseline, OD4S: Burn (0-5)” value in experiment [1] (Day 1, 24 hours of QID dosing, N = 12, vehicle +0.8, P 0.07) is given as −0.1. Also, the “Change From Baseline, Schirmer's Test” value in experiment [1] (Day 1, improvement after a single dose, N = 12, vehicle +1.3, P 0.30) is “+3.4 mm”. Moreover, the “Change From Baseline, VAS Dryness (0-100)” value in experiment [1] (after environmental dosing, Day 1, 24 hours of QID dosing, 0.25% reproxalap, N = 12, vehicle +2, P 0.003) is −26. In experiment [1] (dry eye chamber), the “onset of acute improvements in ocular symptoms and objective sign after administration” value is recorded as “within minutes”. The “Ocular Discomfort Score vs vehicle” value in experiment [1] (dry eye chamber, run-in cohort, p<0.0001) is “statistically significant improvement over vehicle”. In addition, the “VAS Ocular Dryness vs vehicle” value in experiment [1] (dry eye chamber, run-in cohort, p=0.001) is “statistically significant improvement over vehicle”. Besides, the “ocular redness vs vehicle” value in experiment [1] (dry eye chamber, run-in cohort, p=0.03) is reported as “statistically significant improvement over vehicle”. The “symptom improvements over vehicle (VAS ocular dryness score and multiple symptoms)” value in the experiment with dry eye disease patients was “statistically significant symptom improvements”.
